Patent US11993640B2, “Treating inflammatory lung disease” (United States Government as represented by the Department …, priority 2019, dated 2024)
Like-named read-outs stand apart in the source and are kept apart here. Non-standard residues stand in square brackets, D forms with d. Residues, ends and D or L forms follow the SMILES beside them. *: point of attachment. Phenylacetyl(2,3,4,5,6-F5) = O=C(Cc1c(F)c(F)c(F)c(F)c1F)*; Phe(F5) = N[C@@H](Cc1c(F)c(F)c(F)c(F)c1F)C(=O)O; hArg = N=C(N)NCCCC[C@H](N)C(=O)O; 12Ado = NCCCCCCCCCCCC(=O)O; Nle = CCCC[C@H](N)C(=O)O; Orn = NCCC[C@H](N)C(=O)O; Abu = CC[C@H](N)C(=O)O; PhAc = O=C(Cc1ccccc1)*

Experiments:
[1] = test system: NCI-N87 xenograft; experiment: Xenograft tumor growth in nude mice, stomach cancer N87; format: in vivo; conditions: Panel D, 10 weeks
Method: The peptides' activity was compared with GHRH antagonist MIA-602. All statistical analyzses were performed from comparing GHRA antagonists to non-treated tumor (control).
Peptides and chemicals. GHRH antagonists MIA-602 and AVR-GHRH antagonists (see Table 2 above) were synthesized by solid phase methods and purified by HPLC. The peptides were dissolved in DMSO and further diluted in 10% 1, 2-propanediol. The final concentration of peptides was 50 µg/ml in 10% 1, 2-propanediol containing 0.1% of DMSO.
Cell culture. Human cancer cell lines including pancreatic (PANC-1 and CFPAC-1), lung (HCC827 and H460), stomach (NCI-N87), prostate (PC3), brest (MX-1 and HCC-1806), colorectal (HT-29), and ovarian (SK-OV-3 and OVCAR-3) were obtained from the American Type Culture Collection (ATCC) and cultured at 37° C. in a humidified 95% air/5% CO2 atmosphere in the medium recommended by ATCC.
Xenograft models of human cancers in nude mice. Female athymic (NCr nu/nu) nude mice, 5-to 6-weeks-old, obtained from the Envigo labs (Tampa, FL), were housed in laminar airflow cabinets under pathogen-free conditions with a 12-h light/12-h dark schedule, and were fed autoclaved standard chow and water. To generate mice with xenografted tumors, tumor xenografts were initiated by subcutaneous (s.c.) injection of […] human cancer cells into female nude mice. After about 4 weeks the resulting tumors were dissected and collected after removing necrosis tissues. The tumors were then cut into particles with size of ˜3 mm3 and transplanted s.c. by trocar needle into experimental animals. When tumors grew to the size of 50-60 mm3 (by volume), […] of 5 μg of GHRH antagonists MIA-602 or AVR-compounds (2-10 μg as indicated), or vehicle solutions (0.1% DMSO in 10% 1, 2-propanediol) respectively. Tumor sizes were measured weekly.
Statistical analysis. One-way ANOVA followed by Bonferroni comparison were performed. Data are expressed as Mean±SEM. To determine statistical significance between animal groups, two-tailed Student's t-test was conducted. Differences were considered significant when p<0.05.
Results. […] FIG. 1A-N represents in vivo inhibition of tumor growth during the treatment with GHRH antagonist MIA-602 and selected AVR antagonists in nude mice xenografted with various human tumors including pancreatic cancer PANC-1 (FIG. 1A) and CFPAC-1 (FIG. 1I); lung cancer HCC827 (FIGS. 1B, C) and H460 (FIG. 1H); stomach cancer N87 (FIGS. 1D-F); colon cancer HT-29 (FIG. 1G); breast cancer MX-1 and HCC-1806 (FIGS. 1J, K); ovarian cancer SK-OV-3 and OVACAR-3 (FIGS. 1L, M) and prostate cancer PC3 (FIG. 1N). See also Table 5.

[2] = molecular target: T1, membrane GHRH-receptors on human anterior pituitary cells (Homo sapiens, UniProt Q02643); experiment: Competitive receptor binding, displacement of 125I-[His1,Nle27]-hGH-RH(1-32)NH2 from human pituitary membranes
T1 construct: Human pituitary was purchased from the National Hormone and Peptide Program; tissue National Hormone and Peptide Program; host or cells: human pituitary membrane fractions
T1 sequence (Q02643 23-423): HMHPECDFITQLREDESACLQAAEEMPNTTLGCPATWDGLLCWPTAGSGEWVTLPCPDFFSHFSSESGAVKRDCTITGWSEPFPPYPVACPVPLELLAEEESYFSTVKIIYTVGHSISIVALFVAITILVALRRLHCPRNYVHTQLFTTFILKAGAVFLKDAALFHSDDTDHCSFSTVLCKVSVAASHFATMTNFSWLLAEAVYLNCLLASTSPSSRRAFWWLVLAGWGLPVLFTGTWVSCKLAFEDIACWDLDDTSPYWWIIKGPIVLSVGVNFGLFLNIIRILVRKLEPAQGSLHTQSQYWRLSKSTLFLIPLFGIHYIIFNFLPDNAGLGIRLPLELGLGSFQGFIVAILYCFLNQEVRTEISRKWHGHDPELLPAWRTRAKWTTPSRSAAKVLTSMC
Procedure, shortened: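 Membrane fractions from human pituitary; peptides displace 125I-[His1,Nle27]-hGH-RH(1-32)NH2. IC50 is the dose giving 50% inhibition of specific binding, from duplicate tubes. Relative affinity is the ratio of test IC50 to hGH-RH(1-29)NH2 IC50.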

SMILES	Tumor Growth % ([1]; 2 μg/day s.c.) [%]	IC50 ([2]; human anterior pituitary membranes, mean of two to three determinations, read-out: IC50) [nM]	% Inhibition ([1]; 2 μg/day s.c., vs control) [%]	Tumor Growth % ([1]; 5 μg/day s.c.) [%]	IC50 [2] [nM]
CCCC[C@H](NC(=O)[C@@H](NC(=O)[C@H](CC(=O)O)NC(=O)[C@H](CCC(N)=O)NC(=O)[C@H](CC(C)C)NC(=O)[C@H](CC(C)C)NC(=O)[C@H](CCCCN)NC(=O)[C@H](CCCNC(=N)N)NC(=O)[C@H](C)NC(=O)[C@H](CO)NC(=O)[C@H](CC(C)C)NC(=O)[C@H](CCC(N)=O)NC(=O)[C@H](CC)NC(=O)[C@H](CC(C)C)NC(=O)[C@@H](NC(=O)[C@H](CCCCN)NC(=O)[C@H](CCCNC(=N)N)NC(=O)[C@H](Cc1ccc(OC)cc1)NC(=O)[C@H](CCCCNC(=N)N)NC(=O)[C@H](C)NC(=O)[C@@H](NC(=O)[C@H](Cc1c(F)c(F)c(F)c(F)c1F)NC(=O)[C@@H](NC(=O)[C@H](C)NC(=O)[C@H](CC(=O)O)NC(=O)[C@@H](CCCNC(=N)N)NC(=O)[C@H](Cc1ccc(O)cc1)NC(=O)CCCCCCCCCCCNC(=O)Cc1c(F)c(F)c(F)c(F)c1F)[C@@H](C)CC)[C@@H](C)O)C(C)C)[C@@H](C)CC)C(=O)N[C@H](CCCNC(=N)N)C(=O)N[C@@H](CCCCNC(=N)N)C(=O)NC [AVR-235] ({Phenylacetyl(2,3,4,5,6-F5)-12Ado}-Y[dR]DAI[Phe(F5)]TA[hArg]Y(Me)RKVL[Abu]QLSARKLLQDI[Nle][dR][hArg]-NHMe)	558.60	0.49	–	–	–
CCCC[C@H](NC(=O)[C@@H](NC(=O)[C@H](CC(=O)O)NC(=O)[C@H](CCC(N)=O)NC(=O)[C@H](CC(C)C)NC(=O)[C@H](CC(C)C)NC(=O)[C@H](CCCN)NC(=O)[C@H](Cc1c[nH]cn1)NC(=O)[C@H](C)NC(=O)[C@H](CO)NC(=O)[C@H](CC(C)C)NC(=O)[C@H](CCC(N)=O)NC(=O)[C@H](CC)NC(=O)[C@H](CC(C)C)NC(=O)[C@@H](NC(=O)[C@H](CCCN)NC(=O)[C@H](Cc1c[nH]cn1)NC(=O)[C@H](Cc1ccc(OC)cc1)NC(=O)[C@H](CCCCNC(=N)N)NC(=O)[C@H](C)NC(=O)[C@@H](NC(=O)[C@H](Cc1c(F)c(F)c(F)c(F)c1F)NC(=O)[C@@H](NC(=O)[C@H](C)NC(=O)[C@H](CC(=O)O)NC(=O)[C@@H](CCCNC(=N)N)NC(=O)[C@H](Cc1ccc(O)cc1)NC(=O)CCCCCCCCCCCNC(=O)Cc1ccccc1)[C@@H](C)CC)[C@@H](C)O)C(C)C)[C@@H](C)CC)C(=O)N[C@H](CCCNC(=N)N)C(=O)N[C@@H](CCCCNC(=N)N)C(N)=O [MIA-602, PhAC-Ada, Tyr D-Arg, Asp, Ala, Ile, 5FPhe, Thr, Ala, Har, Tyr(Me), His, Orn, Val, Leu, Abu, Gin, Leu, Ser, Ala, His, Orn, Leu, Leu, Gin, Asp, Ile, Nle, D-Arg, Har NH2, reference compound] ({PhAc-12Ado}-Y[dR]DAI[Phe(F5)]TA[hArg]Y(Me)H[Orn]VL[Abu]QLSAH[Orn]LLQDI[Nle][dR][hArg]-NH2)	1065.00	–	13.0	767.00	0.27
